Earlier results, collected in patent publication US20230210769A1, “METHODS OF TREATMENT USING NICLOSAMIDE” (priority 2020, published 2023).

Legend:
[1] = test system: SARS-CoV, influenza virus, MERS-CoV, ZIKV, JEV, HCV, EBOV, HRVs, CHIKV, HAdV, EBV
[2] = test system: SARS-CoV-2 (a.k.a. 2019-nCoV)

## O=C(Nc1ccc([N+](=O)[O-])cc1Cl)c1cc(Cl)ccc1O [niclosamide, 5-chloro-N-(2-chloro-4-nitrophenyl)-2-hydroxybenzamide]
[1]
  anti-viral effects in vitro against various viral infections: anti-viral effects in vitro
[2]
  anti-viral effects against SARS-CoV-2: anti-viral effects
